Tests used:
[1] = tested on: tomato seedlings; experiment: Abscisic acid-induced stomatal closure inhibitory activity, second evaluation (foliar spray, ratio of open stomata); format: in vivo, tomato (cultivar: Ponderosa); conditions: for ratio of open stomata as compared to without the addition (student's t-test) / ratio of open stomata as compared to without the addition: 30 μM abscisic acid
Experimental: (§1) On Jun. 31, 2018, a seedling pot (Bee pot Y-55, manufactured by CANELON C.E) was filled with the culture soil, Kumiai Gardening Seedling Culture Soil AISAI No. 1 (manufactured by Katakura & Co-op Agri Corporation), to be level with the upper side of the pot. Two seeds of tomato (cultivar: Ponderosa) were planted in each pot, and the seedling pot was placed in a climate chamber (25° C., dark period/bright period: 11 h/13 h, bright period: 6:00 a.m. to 19:00 p.m.) at the Cultivation Research Center of OAT Agrio Co., Ltd. Water was supplied from the bottom of the pot, and plants were selected at the time of cotyledon development. At 8:30 a.m. on August 21, chemical solutions each prepared by dissolving 100 ppm of Tween (registered trademark) 80, 30 μM of abscisic acid, and 0 (Comparative Example 12), 100, 300, or 500 μM of steviol were sprayed evenly onto above-ground parts of crops grown to a plant age of about 4 in leaf number. At 11:30 a.m. and 16:00 p.m. on the same day, stomata on the underside of the top leaflet of the second leaf of crops were sampled on a cover glass with an instant adhesive (instant bond for general use AronAlpha (registered trademark) manufactured by TOAGOSEI CO., LTD.) thereon to prepare samples for stomatal observation. These samples were observed under a microscope (magnification 1,000×) to count the number of open or closed stomata in 100 or more stomata, and the ratio of open stomata was calculated according to the following equation:
ratio (%) of open stomata=100×(number of open stomata)/(total number of investigated stomata) (Equation)
The investigations were made in quadruplicate for each treatment condition. A significance test was performed by student's t-test on the ratio of open stomata obtained from the investigation of each individual plant against the ratio of open stomata obtained for the plot without the addition of steviol (0 μm: Comparative Example 12).
as §1, with “Feb. 27,” for “Jun. 31,”, “March 15,” for “August 21,”, “13),” for “12), 100,”, “stevioside” for “steviol”, “3” for “4”, “equation: […]” for “equation:”
The investigations were made in quadruplicate for each treatment condition. A significance test was performed by student's t-test on the ratio of open stomata obtained from the investigation of each individual plant against the ratio of open stomata obtained for the plot without the addition of stevioside (0 μm: Comparative Example 13).
On Mar. […]

[2] = tested on: lower epidermis of Commelina benghalensis L.; experiment: Stomatal opening promoting activity in a bright place (stomatal aperture of peeled lower epidermis); format: cell-based; conditions: for Stomatal Aperture: bright place 3 hours, mean±standard deviation
Experimental: The lower epidermis of Commelina benghalensis L. was peeled off, immersed in the stomatal aperture measurement solution, and allowed to stand still in a dark place for 2 hours. Then, the lower epidermis of Commelina benghalensis L. was immersed in test solutions prepared by adding steviol to the stomatal aperture measurement solution to give 100 or 300 μM (final concentration) or in the stomatal aperture measurement solution without the addition of steviol (Comparative Example 1), and allowed to stand still in a bright place for 3 hours. The lower epidermis of Commelina benghalensis L. after immersion in the test solutions was photographed with a digital camera (LCD (Liquid Crystal Display), manufactured by KENIS LIMITED) attached to a microscope (Olympus BH2; objective lens SPlan 10 [manufactured by Olympus Corporation] magnification 200×). The stomatal aperture was measured with measurement software (digital microanalyzer, manufactured by Nippon Polaroid Corporation; Polaroid is the registered trademark). The stomatal aperture was measured for 80 or more stomata, for each addition concentration. The stomatal aperture obtained at each addition concentration was compared with the stomatal aperture obtained without the addition of steviol (0 μM, Comparative Example 1), and statistical analysis was performed by student's t-test.
The lower epidermis of Commelina benghalensis L. that had been peeled off was immersed in the stomatal aperture measurement solution, and allowed to stand still in a dark place for 2 hours. Then, the lower epidermis of Commelina benghalensis L. was immersed in test solutions prepared by adding FARM A to the stomatal aperture measurement solution to give a 500- or 250-fold dilution (final concentration) or in the stomatal aperture measurement solution without the addition of FARM A (Comparative Example 2), and allowed to stand still in a bright place for 3 hours. Then, the stomatal aperture was measured as in Example 1.

[3] = 100 μM with 30 μM abscisic acid, sprayed 8:30, Time (11:30)
[4] = 300 μM with 30 μM abscisic acid, sprayed 8:30, Time (11:30)
[5] = 500 μM with 30 μM abscisic acid, sprayed 8:30, Time (11:30)
[6] = every addition concentration (100, 300, 500 μM) and every investigation time
[7] = 300 μM with 30 μM abscisic acid, sprayed 8:30, Time (16:00)
[8] = 500 μM with 30 μM abscisic acid, sprayed 8:30, Time (16:00)

Row | SMILES | Ratio (%) of Open Stomata [1, 3] [%] | Ratio (%) of Open Stomata ([1]; 100 μM with 30 μM abscisic acid, sprayed 8:30, Time (16:30)) [%] | Ratio (%) of Open Stomata [1, 4] [%] | Ratio (%) of Open Stomata ([1]; 300 μM with 30 μM abscisic acid, sprayed 8:30, Time (16:30)) [%] | Ratio (%) of Open Stomata [1, 5] [%] | Ratio (%) of Open Stomata ([1]; 500 μM with 30 μM abscisic acid, sprayed 8:30, Time (16:30)) [%] | ratio of open stomata as compared to without the addition (student's t-test) ([1]; 300 and 500 μM) | ratio of open stomata as compared to without the addition [1, 6] | stomatal aperture as compared to without the addition (student's t-test) ([2]; 300 μM, bright place) | stomatal aperture as compared to without the addition ([2]; 100 or 300 μM, bright place) | Stomatal Aperture ([2]; addition concentration 100 μM) [μm] | Stomatal Aperture ([2]; addition concentration 300 μM) [μm] | Ratio (%) of Open Stomata ([1]; 100 μM with 30 μM abscisic acid, sprayed 8:30, Time (16:00)) [%] | Ratio (%) of Open Stomata [1, 7] [%] | Ratio (%) of Open Stomata [1, 8] [%] | ratio of open stomata as compared to without the addition (student's t-test) [1, 6] | ratio of open stomata as compared to without the addition (student's t-test) ([1]; addition concentrations and investigation times other than 500 μM at 11:30 a.m.) | ratio of open stomata as compared to without the addition ([1]; every addition concentration (300, 500 μM) and every investigation time)
1 | C=C1C[C@@]23CC[C@H]4[C@@](C)(CCC[C@@]4(C)C(=O)O[C@@H]4O[C@H](CO)[C@@H](O)[C@H](O)[C@H]4O)[C@@H]2CC[C@]1(O[C@@H]1O[C@H](CO)[C@@H](O)[C@H](O[C@@H]2O[C@H](CO)[C@@H](O)[C@H](O)[C@H]2O)[C@H]1O[C@@H]1O[C@H](CO)[C@@H](O)[C@H](O)[C@H]1O)C3 [rebaudioside A] | 56.6 ± 5.8 | 50.0 ± 3.2 | 58.6 ± 4.6 | 51.2 ± 2.1 | 56.5 ± 3.8 | 54.0 ± 6.6 | statistically significant improvement in the ratio of open stomata | an improvement in the ratio of open stomata |  |  |  |  |  |  |  |  |  | 
2 | C=C1C[C@@]23CC[C@H]4[C@@](C)(CCC[C@@]4(C)C(=O)O)[C@@H]2CC[C@]1(O)C3 [steviol] | 69.0 ± 5.5 |  | 62.7 ± 2.5 |  | 60.1 ± 7.5 |  |  |  | statistically significant increase in the stomatal aperture | an increase in the stomatal aperture | 15.16 ± 0.33 | 16.95 ± 0.37 | 69.3 ± 3.5 | 61.9 ± 4.6 | 62.5 ± 6.8 | statistically significant improvement in the ratio of open stomata |  | 
3 | C=C1C[C@@]23CC[C@H]4[C@@](C)(CCC[C@@]4(C)C(=O)O[C@@H]4O[C@H](CO)[C@@H](O)[C@H](O)[C@H]4O)[C@@H]2CC[C@]1(O[C@@H]1O[C@H](CO)[C@@H](O)[C@H](O)[C@H]1O[C@@H]1O[C@H](CO)[C@@H](O)[C@H](O)[C@H]1O)C3 [stevioside] |  |  | 65.1 ± 6.4 |  | 45.7 ± 2.7 |  |  |  |  |  |  |  |  | 58.0 ± 4.2 | 54.6 ± 3.8 |  | statistically significant improvement in the ratio of open stomata | an improvement in the ratio of open stomata

From patent US20230034248A1, “PLANT STOMATA OPENING PROMOTING AGENT” (OAT Agrio Co., Ltd., priority 2019, published 2023)
